Test results taken from PMC7893052, “Small molecule induces mitochondrial fusion for neuroprotection via targeting CK2 without affecting its conventional kinase activity” (Signal Transduction and Targeted Therapy, 2021).

How the values were obtained:
[1] = target: T1, casein kinase 2 α′ subunit (CK2α′) (Homo sapiens, UniProt P19784); assay: ITC ([…]); also SPR KD […], NanoDSF, CETSA, DARTS, pulldown, LC–MS/MS of covalently modified peptide; format: binding
T1 construct: gene CSNK2A2; human recombinant CK2α′ protein

[2] = target: T2, casein kinase 2 α′ subunit (CK2α′) (Homo sapiens, UniProt P19784, R173A); assay: ITC; format: binding
T2 construct: gene CSNK2A2
T2 sequence (P19784 1-350 R173A): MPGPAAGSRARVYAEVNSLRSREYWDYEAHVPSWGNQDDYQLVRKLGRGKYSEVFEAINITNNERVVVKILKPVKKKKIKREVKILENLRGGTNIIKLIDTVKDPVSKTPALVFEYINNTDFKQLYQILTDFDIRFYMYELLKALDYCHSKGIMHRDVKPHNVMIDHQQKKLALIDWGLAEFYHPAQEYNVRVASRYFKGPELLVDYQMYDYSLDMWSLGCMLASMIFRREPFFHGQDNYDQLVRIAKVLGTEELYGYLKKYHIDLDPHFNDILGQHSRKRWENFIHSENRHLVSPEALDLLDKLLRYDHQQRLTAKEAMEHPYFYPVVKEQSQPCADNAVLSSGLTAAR

T1 sequence (P19784 whole entry): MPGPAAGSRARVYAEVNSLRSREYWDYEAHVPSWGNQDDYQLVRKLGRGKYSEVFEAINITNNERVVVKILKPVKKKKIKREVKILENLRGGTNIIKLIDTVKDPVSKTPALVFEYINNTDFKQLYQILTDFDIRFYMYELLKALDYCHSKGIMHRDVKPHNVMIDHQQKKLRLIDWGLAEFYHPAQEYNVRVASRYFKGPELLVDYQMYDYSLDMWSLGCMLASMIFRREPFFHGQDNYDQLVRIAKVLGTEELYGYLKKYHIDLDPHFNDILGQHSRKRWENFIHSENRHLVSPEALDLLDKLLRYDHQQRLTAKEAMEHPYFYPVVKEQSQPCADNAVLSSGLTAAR

- Kd [1]: 1060 nM
- Kd [2]: 413 nM
SMILES: C[C@@H]1O[C@@H](O[C@@H]2[C@@H](O)[C@H](OCCc3ccc(O)c(O)c3)O[C@H](CO[C@@H]3O[C@H](CO)[C@@H](O)[C@H](O)[C@H]3O)[C@H]2OC(=O)/C=C/c2ccc(O)c(O)c2)[C@H](O)[C@H](O)[C@H]1O [ECH, echinacoside]
